From ChEMBL document CHEMBL1138408, “Molecular dynamics simulation of the P2Y14 receptor. Ligand docking and identification of a putative binding site of the distal hexose moiety” (Bioorg Med Chem Lett, 2007)

Target: T1, P2Y purinoceptor 14 (Homo sapiens, UniProt Q15391)
T1 sequence (Q15391 whole entry): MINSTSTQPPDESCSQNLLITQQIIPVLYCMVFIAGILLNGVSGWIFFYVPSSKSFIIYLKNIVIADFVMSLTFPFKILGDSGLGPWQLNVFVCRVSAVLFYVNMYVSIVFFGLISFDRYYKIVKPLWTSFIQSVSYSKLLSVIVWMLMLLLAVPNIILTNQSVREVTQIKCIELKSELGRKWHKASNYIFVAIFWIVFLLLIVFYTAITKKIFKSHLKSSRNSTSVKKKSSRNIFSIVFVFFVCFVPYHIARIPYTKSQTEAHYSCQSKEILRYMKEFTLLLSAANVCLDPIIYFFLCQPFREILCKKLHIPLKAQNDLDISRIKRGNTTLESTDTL
Assay: Agonist activity at human P2Y14 receptor expressed in COS7 cells assessed as stimulation of PLC
Assay type: functional, cell-based, COS-7

Row | EC50 (cos-7) [µM] | SMILES | EC50 [µM]
1 | – | O=C(O)[C@@H]1O[C@@H](OP(=O)(O)OP(=O)(O)OC[C@H]2O[C@@H](n3ccc(=O)[nH]c3=O)[C@H](O)[C@@H]2O)[C@@H](O)[C@H](O)[C@H]1O | 0.37
2 | 4.38 | CC(=O)N[C@@H]1[C@H](OP(=O)(O)OP(=O)(O)OC[C@H]2O[C@@H](n3ccc(=O)[nH]c3=O)[C@H](O)[C@@H]2O)O[C@@H](CO)[C@H](O)[C@H]1O | –
